The results in this text go back to PubChem BioAssay (NCI).

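Interpolation was linear, between the two tested concentrations surrounding the appropriate level; five concentrations were tested over 48 hours in 96-well plates. At the GI50, growth is halved. TGI: concentration producing complete growth inhibition.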

What all share (test): inhibition of tumour cell growth, NCI panel, 48 h
Assay [1] deals with HOP-92 NSCLC.
The test system of assay [2] is SNB-75 CNS.
The subject of assay [3] is SK-MEL-28 melanoma.
For assay [4], the system named is SN12C renal.
In assay [5] the test system is OVCAR-5 ovarian.
The test system of assay [6] is MALME-3M melanoma.
In assay [7] the test system is MOLT-4 leukemia.
Assay [8] concerns HS 578T breast.
Assay [9] relates to NCI-H226 lung.
In assay [10] the test system is KM12 colon.

With `CCOC(=O)c1c(CN2CCCC2)n(-c2ccccc2)c2cc(Br)c(OC)cc12`, the TGI in assay [1] is 33.2 µM; in assay [2] it was 62.5 µM; in [3] it was 35.3 µM; in [4], over 100 µM; in assay [5] it was 45.7 µM; in assay [6], 30.4 µM. In addition, the TGI in assay [7] is 24.3 µM; in [8] it was over 100 µM; in [9], 35.6 µM.

Turning to `Nc1nc(=O)n(CC(O)CO)s1` (stereo not given), the TGI in assay [2], in [4], in assay [5], in assay [6], in [7] and in assay [9] was over 100 µM each time.

`CNC(=O)Nc1ccccc1`: the TGI in assay [1], in [2], in [3], in [4], in assay [5] and in [6] was over 100 µM in each case. For the same molecule, the TGI in [7], in assay [10], in assay [8] and in [9] was over 100 µM throughout.

Take `COc1cc2c(cc1OCCCN1CCN(c3ncnc4ccccc34)CC1)N=CC1CCCN1C2=O` (stereo not given): the GI50 in assay [1] is 0.0199 µM; in assay [2] it was 0.0357 µM; in assay [3] it was 0.0336 µM; in assay [4], 0.0374 µM; in [5], 0.0263 µM; in assay [6], 0.0198 µM. Moreover, the GI50 in assay [7] was 0.0175 µM; in assay [10] it was 0.0325 µM; in [8], under 0.0177 µM; in [9], 0.0348 µM. Also, the TGI worked out at 0.0529 µM in [1]; 0.168 µM in assay [2]; 0.103 µM in [3]; 3.97 µM in assay [4]; 0.0717 µM in assay [5]; 0.0479 µM in assay [6]. For the same molecule, the TGI is 0.0596 µM in assay [7], 0.183 µM in assay [10], 0.0568 µM in [8] and 0.247 µM in assay [9].

For `O=c1/c(=C/c2ccc([N+](=O)[O-])o2)sc2n1[C@@H](c1ccc3c(c1)OCO3)C=C(c1cc(F)c(Cl)cc1Cl)N=2`, the TGI is 26.6 µM in assay [1]; 37.4 µM in assay [2]; over 100 µM in [3]; 56.7 µM in assay [4]; 43.8 µM in [5]; 40.5 µM in assay [6]. The TGI was over 100 µM in assay [7], 38.4 µM in assay [10], over 100 µM in [8] and over 100 µM in [9].

Turning to `N#C[S-].[Ce+3].c1cnc2c(c1)ccc1cccnc12.c1cnc2c(c1)ccc1cccnc12.c1cnc2c(c1)ccc1cccnc12`, the TGI in assay [1] is 22.7 µM; in assay [2], 22.2 µM; in assay [3], 26.9 µM; in assay [4] it was 13.1 µM; in assay [5] it was 16.1 µM; in assay [6], 8.84 µM. Also, the TGI in assay [7] was over 100 µM; in assay [10], 18.3 µM; in assay [9], 8.24 µM.

For the molecule `O=C(NNC(=O)c1nsc2ccccc12)c1ccc(Cl)cc1`, the TGI was 32.8 µM in assay [1]; 15.6 µM in [2]; 36.1 µM in assay [3]; 33.7 µM in [4]; 46.4 µM in assay [5]; 50.2 µM in assay [7]. This molecule also registered a TGI in assay [10] of 65.7 µM.

As to `NC(CC(=O)O)(Cc1ccccc1)C(=O)O` (stereo not given), the TGI in assay [1], in [2], in assay [3], in assay [4], in [5] and in [6] was over 100 µM throughout. Further, the TGI in assay [7], in assay [10], in [8] and in [9] was over 100 µM in each case.

`C[N+](C)(CCO)CCN1c2ccccc2Sc2ccccc21`: the TGI in assay [2], in assay [3], in assay [4], in [5], in assay [6] and in assay [7] was over 10 µM each time. In addition, the TGI in assay [10], in [8] and in assay [9] was over 10 µM each time.

As for `Fc1c(F)c(C(F)(F)F)c(F)c(F)c1N/N=C/c1cn(Cc2ccccc2)c2ccccc12`, the TGI in assay [1] is 60.2 µM; in assay [2], 62.4 µM; in assay [3], over 100 µM; in assay [4], 92 µM; in [5], 41.9 µM; in assay [6] it was over 100 µM. For the same molecule, the TGI in [7] was 83.3 µM; in assay [10] it was 45 µM; in [8], over 100 µM.

For the molecule `COc1ccc(C)cc1Nc1nnc(-c2ccc(N)cc2)s1`, the TGI in [1], in assay [2], in assay [3], in assay [4], in assay [5] and in assay [6] was over 100 µM throughout. Besides, the TGI in assay [7], in assay [10], in assay [8] and in assay [9] was over 100 µM each time.

For the molecule `COc1ccc2c(c1)CC[C@@H]1[C@@H]2CC[C@]2(C)C(=O)/C(=C/c3ccc(O)c(OC)c3)C[C@@H]12`, the TGI in [1] is over 100 µM; in assay [3] it was over 100 µM; in assay [5], over 100 µM; in assay [7] it was 92.1 µM; in assay [9], over 100 µM.

As for `Cn1c(=O)c2c(nc(NCCNc3nc4c(c(=O)n(C)c(=O)n4C)n3C)n2C)n(C)c1=O`, the TGI in assay [1], in [2], in assay [3], in [4], in [5] and in assay [6] was over 100 µM throughout. Further, the TGI in assay [7], in assay [10], in assay [8] and in assay [9] was over 100 µM throughout.

Regarding `O=C(COc1ccc(Cl)cc1Cl)N/N=C/C=C/c1ccc([N+](=O)[O-])o1`, the TGI is 59.2 µM in assay [2]; over 100 µM in assay [3]; over 100 µM in assay [4]; over 100 µM in assay [5]; 6.65 µM in assay [6]; 6.14 µM in [7]. The TGI in assay [10] was over 100 µM; in assay [8], 7.4 µM; in assay [9], over 100 µM.

As to `O=S(O)c1cc(Cl)cc(Cl)c1OCc1ccccc1`, the TGI in assay [2], in assay [3], in assay [4], in [5], in assay [6] and in [7] was over 100 µM throughout. The TGI in assay [10] is over 100 µM.

`COc1ccc(C2=NN(C(=O)c3cccnc3)C(O)(c3cc(F)c(Cl)cc3Cl)C2)cc1OC` (stereo not given): the TGI in assay [1] was 50.8 µM; in assay [2] it was 62.9 µM; in [3], 54.4 µM; in assay [4], 34.7 µM; in assay [5], over 100 µM; in [6], 59.1 µM. In addition, the TGI in [7] is over 100 µM; in assay [10], over 100 µM; in assay [8], 66.9 µM; in [9] it was 30 µM.
